Reference: patent publication US11633505B2, “Nuclear magnetic resonance diagnostic agent, and method for detecting or diagnosing state of cell, tissue or organ in subject using same” (National University Corporation Kumamoto University, priority 2012, dated 2023)

System: Brain tumor (9 L gliosarcoma)
Experiment: MRI (7T, 2D-RARE) T1/T2 measurement of excised subcutaneous tumor after ALA administration
Conditions: for Average T1 value / Average T2 value: ROI in excised tumor portion, ALA 100 mg/kg, 3 hours after administration, 7T-MRI, mean ± standard deviation

In the case of `NCC(=O)CCC(=O)O` [ALA, 5-aminolevulinic acid], the “Average T1 value” (First average) is reported as 2004 ± 73 ms, the “Average T2 value” (First average) is reported as 146 ± 22 ms and the “Average T1 value” (Second average) is reported as 2188 ± 210 ms. The “Average T2 value” (Second average) was 123 ± 5.7 ms, the “signal ratio (ALA administration group/control group) of T2 value” (first measurement) was “approximately 1.4 times” and the “signal ratio (ALA administration group/control group) of T2 value” (second measurement) was “approximately 1.3 times”.
